Assays:
Test in all cases: KINOMEscan competition binding
Settings in all cases: compound 10.0 µM
CASK (human) = CASK (human) (UniProt O14936)
CAMK2B (human) = CAMK2B (human) (UniProt Q13554)
PRPF4B (human) = PRPF4B (human) (UniProt Q13523)
CDKL2 (human) = CDKL2 (human) (UniProt Q92772)
MAP3K6 (human) = MAP3K6 (human) (UniProt O95382)
CPK1 (P.falciparum) = tested on: CPK1 (P.falciparum)
RPS6KA6 KD1 (human) = RPS6KA6 KD1 (human) (UniProt Q9UK32)
ADCK3 (human) = ADCK3 (human) (UniProt Q8NI60)
MAP2K4 (human) = MAP2K4 (human) (UniProt P45985)
EPHA4 (human) = EPHA4 (human) (UniProt P54764)
EPHA3 (human) = EPHA3 (human) (UniProt P29320)
PRKACA (human) = PRKACA (human) (UniProt P17612)
CSNK1G1 (human) = CSNK1G1 (human) (UniProt Q9HCP0)
CDK17 (human) = CDK17 (human) (UniProt Q00537)
STK3 (human) = STK3 (human) (UniProt Q13188)
SYK (human) = SYK (human) (UniProt P43405)
MAPK13 (human) = MAPK13 (human) (UniProt O15264)
STK36 (human) = STK36 (human) (UniProt Q9NRP7)
RET (human) = RET (human) (UniProt P07949)
MAP3K11 (human) = MAP3K11 (human) (UniProt Q16584)
EPHB4 (human) = EPHB4 (human) (UniProt P54760)
MAST1 (human) = MAST1 (human) (UniProt Q9Y2H9)
MTOR (human) = MTOR (human) (UniProt P42345)
MAP2K7 (human) = MAP2K7 (human) (UniProt O14733)
MKNK2 (human) = MKNK2 (human) (UniProt Q9HBH9)
FGFR4 (human) = FGFR4 (human) (UniProt P22455)
CSNK2A2 (human) = CSNK2A2 (human) (UniProt P19784)
NEK7 (human) = NEK7 (human) (UniProt Q8TDX7)
PKMYT1 (human) = PKMYT1 (human) (UniProt Q99640)
CAMKK2 (human) = CAMKK2 (human) (UniProt Q96RR4)
DAPK1 (human) = DAPK1 (human) (UniProt P53355)
MERTK (human) = MERTK (human) (UniProt Q12866)
CLK4 (human) = CLK4 (human) (UniProt Q9HAZ1)
DDR2 (human) = DDR2 (human) (UniProt Q16832)
PIK3C2B (human) = PIK3C2B (human) (UniProt O00750)
AKT1 (human) = AKT1 (human) (UniProt P31749)
YSK4 (human) = YSK4 (human) (UniProt Q56UN5)
ANKK1 (human) = ANKK1 (human) (UniProt Q8NFD2)
EPHB2 (human) = EPHB2 (human) (UniProt P29323)
PRKCH (human) = PRKCH (human) (UniProt P24723)

MAP3K6 (human), sequence (O95382 whole entry, looked up): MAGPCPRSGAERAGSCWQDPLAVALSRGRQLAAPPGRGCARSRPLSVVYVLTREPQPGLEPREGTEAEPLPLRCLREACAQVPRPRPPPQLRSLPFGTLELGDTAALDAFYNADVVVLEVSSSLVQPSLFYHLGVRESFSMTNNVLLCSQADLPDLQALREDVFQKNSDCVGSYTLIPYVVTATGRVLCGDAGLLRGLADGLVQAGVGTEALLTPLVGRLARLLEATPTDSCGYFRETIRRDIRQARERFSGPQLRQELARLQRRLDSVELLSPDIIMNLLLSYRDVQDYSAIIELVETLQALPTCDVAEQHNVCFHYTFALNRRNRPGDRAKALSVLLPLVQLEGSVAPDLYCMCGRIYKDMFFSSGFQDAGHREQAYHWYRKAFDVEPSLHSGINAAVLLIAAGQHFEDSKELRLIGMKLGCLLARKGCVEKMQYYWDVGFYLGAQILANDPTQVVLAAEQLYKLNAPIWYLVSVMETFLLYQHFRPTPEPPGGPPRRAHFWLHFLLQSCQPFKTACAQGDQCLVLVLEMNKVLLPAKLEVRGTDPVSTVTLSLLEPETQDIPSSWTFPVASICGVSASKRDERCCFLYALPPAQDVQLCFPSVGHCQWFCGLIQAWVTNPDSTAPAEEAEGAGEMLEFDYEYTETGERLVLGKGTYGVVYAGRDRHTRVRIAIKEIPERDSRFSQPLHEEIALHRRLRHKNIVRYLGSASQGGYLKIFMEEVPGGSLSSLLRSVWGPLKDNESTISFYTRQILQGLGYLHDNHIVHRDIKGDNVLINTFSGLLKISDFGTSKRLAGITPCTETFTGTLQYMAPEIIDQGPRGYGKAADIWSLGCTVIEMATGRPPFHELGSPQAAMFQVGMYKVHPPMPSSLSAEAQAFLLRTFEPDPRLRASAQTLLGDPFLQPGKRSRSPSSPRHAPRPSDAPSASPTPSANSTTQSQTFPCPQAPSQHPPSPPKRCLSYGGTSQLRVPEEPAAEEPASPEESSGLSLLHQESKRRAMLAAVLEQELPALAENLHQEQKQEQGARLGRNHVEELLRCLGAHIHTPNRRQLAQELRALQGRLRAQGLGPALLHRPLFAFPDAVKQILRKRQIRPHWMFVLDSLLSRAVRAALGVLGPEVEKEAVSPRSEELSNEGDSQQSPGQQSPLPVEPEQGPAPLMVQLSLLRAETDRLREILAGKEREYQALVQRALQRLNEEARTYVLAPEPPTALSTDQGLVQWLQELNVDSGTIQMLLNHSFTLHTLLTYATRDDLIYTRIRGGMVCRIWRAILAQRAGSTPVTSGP
RET (human), sequence (P07949 whole entry, looked up): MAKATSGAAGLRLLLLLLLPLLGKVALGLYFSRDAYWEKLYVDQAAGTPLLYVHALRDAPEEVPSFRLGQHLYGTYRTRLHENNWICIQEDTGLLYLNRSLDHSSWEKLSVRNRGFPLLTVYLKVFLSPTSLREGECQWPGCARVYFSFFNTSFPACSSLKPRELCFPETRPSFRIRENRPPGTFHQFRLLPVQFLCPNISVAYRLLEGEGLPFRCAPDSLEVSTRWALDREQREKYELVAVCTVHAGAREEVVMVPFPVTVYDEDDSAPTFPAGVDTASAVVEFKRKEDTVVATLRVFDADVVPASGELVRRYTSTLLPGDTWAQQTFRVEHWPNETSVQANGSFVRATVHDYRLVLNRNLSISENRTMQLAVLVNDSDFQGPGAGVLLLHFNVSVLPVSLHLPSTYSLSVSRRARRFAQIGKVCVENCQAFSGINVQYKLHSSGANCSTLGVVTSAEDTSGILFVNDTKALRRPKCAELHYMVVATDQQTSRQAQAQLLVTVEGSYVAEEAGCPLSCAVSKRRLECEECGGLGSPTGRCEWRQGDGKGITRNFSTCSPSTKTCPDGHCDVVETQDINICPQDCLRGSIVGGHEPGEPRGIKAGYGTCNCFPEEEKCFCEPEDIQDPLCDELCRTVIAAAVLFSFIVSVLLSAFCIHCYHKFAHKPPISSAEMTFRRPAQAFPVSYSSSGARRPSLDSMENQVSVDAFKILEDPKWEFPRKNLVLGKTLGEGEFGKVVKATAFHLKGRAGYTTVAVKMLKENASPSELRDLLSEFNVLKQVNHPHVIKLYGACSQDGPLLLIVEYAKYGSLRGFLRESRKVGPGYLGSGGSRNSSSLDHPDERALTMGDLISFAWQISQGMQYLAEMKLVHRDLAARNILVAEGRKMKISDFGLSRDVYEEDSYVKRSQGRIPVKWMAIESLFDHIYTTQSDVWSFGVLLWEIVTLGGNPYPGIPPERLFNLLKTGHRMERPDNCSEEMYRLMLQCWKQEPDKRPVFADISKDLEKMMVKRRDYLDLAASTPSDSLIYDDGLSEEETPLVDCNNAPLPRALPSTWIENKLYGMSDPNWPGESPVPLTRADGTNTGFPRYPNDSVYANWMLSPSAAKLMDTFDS
NEK7 (human), sequence (Q8TDX7 whole entry, looked up): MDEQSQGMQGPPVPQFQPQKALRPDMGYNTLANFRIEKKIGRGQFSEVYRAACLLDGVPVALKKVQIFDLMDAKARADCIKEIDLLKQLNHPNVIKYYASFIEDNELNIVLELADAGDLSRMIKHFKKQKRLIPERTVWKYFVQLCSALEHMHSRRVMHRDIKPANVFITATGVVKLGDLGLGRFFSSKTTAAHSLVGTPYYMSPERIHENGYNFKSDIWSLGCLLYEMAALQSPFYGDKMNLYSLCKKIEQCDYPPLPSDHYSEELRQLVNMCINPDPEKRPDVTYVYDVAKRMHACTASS
CAMK2B (human), sequence (Q13554 whole entry, looked up): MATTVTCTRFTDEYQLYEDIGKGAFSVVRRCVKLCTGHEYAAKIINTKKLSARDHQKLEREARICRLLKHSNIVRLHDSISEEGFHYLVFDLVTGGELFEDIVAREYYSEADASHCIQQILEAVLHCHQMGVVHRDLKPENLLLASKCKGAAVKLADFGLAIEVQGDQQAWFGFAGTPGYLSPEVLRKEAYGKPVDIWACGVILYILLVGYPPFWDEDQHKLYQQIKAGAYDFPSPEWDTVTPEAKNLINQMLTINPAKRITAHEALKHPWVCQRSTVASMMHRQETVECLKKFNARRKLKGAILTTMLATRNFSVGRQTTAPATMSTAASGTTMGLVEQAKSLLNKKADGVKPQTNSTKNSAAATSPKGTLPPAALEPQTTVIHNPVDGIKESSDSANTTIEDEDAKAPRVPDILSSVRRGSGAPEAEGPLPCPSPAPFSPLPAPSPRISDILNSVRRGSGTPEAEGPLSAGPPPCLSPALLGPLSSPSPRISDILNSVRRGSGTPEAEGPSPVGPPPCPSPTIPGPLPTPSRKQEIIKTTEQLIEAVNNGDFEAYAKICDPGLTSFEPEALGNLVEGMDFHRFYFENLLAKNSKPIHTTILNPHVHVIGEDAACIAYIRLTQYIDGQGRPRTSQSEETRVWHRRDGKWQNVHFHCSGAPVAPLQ
CAMKK2 (human), sequence (Q96RR4 whole entry, looked up): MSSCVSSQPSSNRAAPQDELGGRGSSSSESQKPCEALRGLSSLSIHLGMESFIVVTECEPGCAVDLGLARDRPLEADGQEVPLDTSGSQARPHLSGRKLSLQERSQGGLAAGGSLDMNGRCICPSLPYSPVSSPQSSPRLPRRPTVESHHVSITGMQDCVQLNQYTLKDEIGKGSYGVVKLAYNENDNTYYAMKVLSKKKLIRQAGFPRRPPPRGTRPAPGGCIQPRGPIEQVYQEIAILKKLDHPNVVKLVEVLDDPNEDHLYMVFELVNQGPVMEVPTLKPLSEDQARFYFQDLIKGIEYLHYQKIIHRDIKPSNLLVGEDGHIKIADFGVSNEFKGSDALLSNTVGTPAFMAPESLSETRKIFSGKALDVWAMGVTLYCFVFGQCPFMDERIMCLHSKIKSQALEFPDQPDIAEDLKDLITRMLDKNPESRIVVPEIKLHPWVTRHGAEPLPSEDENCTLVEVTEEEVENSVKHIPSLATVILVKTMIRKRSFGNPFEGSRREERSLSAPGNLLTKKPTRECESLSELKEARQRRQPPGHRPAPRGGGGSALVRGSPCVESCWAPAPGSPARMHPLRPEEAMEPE
CDKL2 (human), sequence (Q92772 whole entry, looked up): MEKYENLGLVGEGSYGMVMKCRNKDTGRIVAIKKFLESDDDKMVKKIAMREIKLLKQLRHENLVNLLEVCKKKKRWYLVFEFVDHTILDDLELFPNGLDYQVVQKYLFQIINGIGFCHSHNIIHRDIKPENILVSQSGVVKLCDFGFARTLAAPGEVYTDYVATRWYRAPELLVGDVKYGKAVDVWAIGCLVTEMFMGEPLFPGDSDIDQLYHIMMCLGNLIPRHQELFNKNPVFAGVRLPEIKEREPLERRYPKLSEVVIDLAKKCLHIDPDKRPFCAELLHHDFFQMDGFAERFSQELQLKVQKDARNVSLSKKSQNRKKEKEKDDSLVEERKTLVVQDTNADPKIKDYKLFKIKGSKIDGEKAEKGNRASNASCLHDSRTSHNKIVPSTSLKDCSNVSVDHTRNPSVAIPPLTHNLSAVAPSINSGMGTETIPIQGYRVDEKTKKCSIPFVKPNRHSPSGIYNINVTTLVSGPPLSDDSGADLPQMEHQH
MAP2K4 (human), sequence (P45985 whole entry, looked up): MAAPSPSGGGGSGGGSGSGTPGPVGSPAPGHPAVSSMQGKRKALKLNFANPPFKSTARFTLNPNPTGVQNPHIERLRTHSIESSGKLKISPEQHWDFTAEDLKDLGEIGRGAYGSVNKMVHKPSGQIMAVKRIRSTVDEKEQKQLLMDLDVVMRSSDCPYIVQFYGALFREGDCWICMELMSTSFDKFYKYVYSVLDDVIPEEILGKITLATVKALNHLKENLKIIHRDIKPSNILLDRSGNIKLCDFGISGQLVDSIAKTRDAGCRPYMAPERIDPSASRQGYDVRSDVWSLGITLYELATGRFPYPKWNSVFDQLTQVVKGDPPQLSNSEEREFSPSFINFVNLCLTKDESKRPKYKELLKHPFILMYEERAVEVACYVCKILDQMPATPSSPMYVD

C=CC(=O)Nc1cccc(Nc2nc(N[C@H]3CC[C@H](N(C)C)CC3)nc3c2ncn3C(C)C)c1
kinase still bound, per cent of control (CASK (human)): 92%
kinase still bound, per cent of control (CAMK2B (human)): 80%
kinase still bound, per cent of control (PRPF4B (human)): 90%
kinase still bound, per cent of control (CDKL2 (human)): 100%
kinase still bound, per cent of control (MAP3K6 (human)): 86%
kinase still bound, per cent of control (CPK1 (P.falciparum)): 98%
kinase still bound, per cent of control (RPS6KA6 KD1 (human)): 8.2%
kinase still bound, per cent of control (ADCK3 (human)): 87%
kinase still bound, per cent of control (MAP2K4 (human)): 76%
kinase still bound, per cent of control (EPHA4 (human)): 64%
kinase still bound, per cent of control (EPHA3 (human)): 54%
kinase still bound, per cent of control (PRKACA (human)): 100%
kinase still bound, per cent of control (CSNK1G1 (human)): 28%
kinase still bound, per cent of control (CDK17 (human)): 100%
kinase still bound, per cent of control (STK3 (human)): 57%
kinase still bound, per cent of control (SYK (human)): 72%
kinase still bound, per cent of control (MAPK13 (human)): 94%
kinase still bound, per cent of control (STK36 (human)): 100%
kinase still bound, per cent of control (RET (human)): 73%
kinase still bound, per cent of control (MAP3K11 (human)): 24%
kinase still bound, per cent of control (EPHB4 (human)): 60%
kinase still bound, per cent of control (MAST1 (human)): 83%
kinase still bound, per cent of control (MTOR (human)): 100%
kinase still bound, per cent of control (MAP2K7 (human)): 100%
kinase still bound, per cent of control (MKNK2 (human)): 39%
kinase still bound, per cent of control (FGFR4 (human)): 98%
kinase still bound, per cent of control (CSNK2A2 (human)): 48%
kinase still bound, per cent of control (NEK7 (human)): 76%
kinase still bound, per cent of control (PKMYT1 (human)): 93%
kinase still bound, per cent of control (CAMKK2 (human)): 25%
kinase still bound, per cent of control (DAPK1 (human)): 29%
kinase still bound, per cent of control (MERTK (human)): 16%
kinase still bound, per cent of control (CLK4 (human)): 5.1%
kinase still bound, per cent of control (DDR2 (human)): 100%
kinase still bound, per cent of control (PIK3C2B (human)): 100%
kinase still bound, per cent of control (AKT1 (human)): 93%
kinase still bound, per cent of control (YSK4 (human)): 15%
kinase still bound, per cent of control (ANKK1 (human)): 62%
kinase still bound, per cent of control (EPHB2 (human)): 87%
kinase still bound, per cent of control (PRKCH (human)): 91%

Reference: the kinase profiling compilation of Christmann-Franck et al. (2016)
